What follows are compounds tested against T1, Human Polymorphonuclear Leukocyte Elastase (Homo sapiens, UniProt P08246) (assay: Enzyme assay for inhibition of human polymorphonuclear leukocyte elastase via hydrolysis of Boc-AAPAN or Boc-AAPVN). Conditions: pH 7.5, second order rate constant for inactivation of the enzyme, expressed to the nearest thousand, read-out: Kobs/[I].
T1 construct: Crude extract of human polymorphonuclear leukocytes (PMN) containing elastase activity; from tissue; host or cells: human polymorphonuclear leukocytes (crude extract)
T1 sequence (P08246 30-267): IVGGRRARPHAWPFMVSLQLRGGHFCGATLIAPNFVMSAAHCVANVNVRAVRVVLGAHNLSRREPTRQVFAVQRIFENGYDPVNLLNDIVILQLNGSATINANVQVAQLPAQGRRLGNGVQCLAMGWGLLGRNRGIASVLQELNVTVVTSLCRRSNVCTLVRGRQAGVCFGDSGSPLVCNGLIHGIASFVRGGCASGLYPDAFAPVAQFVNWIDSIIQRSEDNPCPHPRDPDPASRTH
Type: biochemical
In short: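 Crude human PMN extract as enzyme source, with 0.2 mM Boc-AAPAN in 0.05M TES buffer pH 7.5. Inhibitors in DMSO were added to substrate before the extract, and rate was followed as ΔOD/min at 410 mµ. Values are kobs/I, the second-order inactivation rate constant (per mole per second).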

Compound | kinact/KI [M⁻¹ s⁻¹]
CCC[C@@H](NC(=O)N1C(=O)C(CC)(CC)[C@@H]1Oc1cc(C)c(C(=O)OCCN(CC)CC)c(C)c1)c1ccc(C)cc1 [Compound 305, 2-(diethylamino)ethyl [S-(R*,S*)]-4-[[3,3-diethyl-1-[[[1-(4-methylphenyl)butyl]amino]carbonyl]-4-oxo-2-azetidinyl]oxy]-2,6-dimethyl-benzoate] | 749000
CCC[C@@H](NC(=O)N1C(=O)C(CC)(CC)[C@@H]1Oc1cc(C)c(C(=O)OCCN(C(C)C)C(C)C)c(C)c1)c1ccc(C)cc1 [Compound 306, 2-[bis(1-methylethyl)amino]-ethyl [S-(R*,S*)]-4-[[3,3-diethyl-1-[[[1-(4-methylphenyl)butyl]amino]carbonyl]-4-oxo-2-azetidinyl]oxy]-2,6-dimethyl-benzoate] | 612000
CCC[C@@H](NC(=O)N1C(=O)C(CC)(CC)[C@@H]1Oc1cc(C)c(C(=O)N(C)CCN(C)C)c(C)c1)c1ccc(C)cc1 [Compound 307] | 352000
CCC[C@@H](NC(=O)N1C(=O)C(CC)(CC)[C@@H]1Oc1cc(C)c(C(=O)N(C)CCN(CC)CC)c(C)c1)c1ccc(C)cc1 [Compound 308] | 377000
CCC[C@@H](NC(=O)N1C(=O)C(CC)(CC)[C@@H]1Oc1cc(C)c(C(=O)N(CC)CCN(C)C)c(C)c1)c1ccc(C)cc1 [Compound 309] | 398000
CCC[C@@H](NC(=O)N1C(=O)C(CC)(CC)[C@@H]1Oc1ccc(C(=O)N(C)CCN(C)C)c(O)c1)c1ccc(C)cc1 [Compound 310] | 838000

Same assay, conditions: second order rate constant for inactivation of the enzyme, expressed to the nearest thousand; pH 7.5

Compound | Kobs/[I]
[S-(R*,S*)]-2-[4-[[(4-Methyl)piperazin-1-yl]carbonyl] phenoxy]-((3,3-diethyl-N-[1-(methylphenyl)butyl]-4-oxo-1-azetidinecarboxamide [Compound 242] | 1,700,000 per mole per second

From patent publication EP0595557A1, “New substituted azetidinones as anti-inflammatory and antidegenerative agents” (MERCK & CO. INC., priority 1992, dated 1994)
